One block for each compound: values may come before it.
Key:
[1] = molecular target: T1, human leukocyte elastase (HLE) (Homo sapiens, UniProt P08246); assay: Human leukocyte elastase (HLE) inhibition assay, Dixon plot; format: biochemical; conditions: competitive inhibition conditions, substrate MeOSuc-AAPV-pNA, 0.1 M HEPES pH 7.25, 25° C., read-out: K1 or % Inhibition (Ki), Elastase (HLE)
T1 sequence (P08246 30-247 limits assumed): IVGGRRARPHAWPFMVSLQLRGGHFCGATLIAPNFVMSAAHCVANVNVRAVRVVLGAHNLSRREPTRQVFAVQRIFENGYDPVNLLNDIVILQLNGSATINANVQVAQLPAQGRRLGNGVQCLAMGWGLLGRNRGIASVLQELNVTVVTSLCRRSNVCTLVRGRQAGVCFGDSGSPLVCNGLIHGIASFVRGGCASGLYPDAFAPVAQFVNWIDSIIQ
Source text: Screening of compounds for protease activity is known in the art. The human leukocyte elastase (HLE), cathepsin G (Cat G) and proteinase 3 (PR3) assays have each been described in detail; see, Groutas et al. Biochemistry 36:4739 (1997). Chymase assay has also been previously reported; see, Schechter, et al., J. Biol. Chem. 268:23626 (1993).
The substrates and buffers used in the assay inhibition studies with human leukocyte elastase (HLE), cathepsin G (Cat G), proteinase 3 (PR3) (Groutas, W. C., et al., Biochemistry 36:4739 (1997) and chymase (Groutas, W. C. et al., Bioorg. Med. Chem. Lett. 9:2199 (1999) were as follows: HLE, MeOSuc-AAPV-pNA, 0.1 M HEPES buffer, pH, 7.25 in 1-5% DMSO; Cat G, Suc-AAPF-pNA, 0.1 M HEPES buffer, pH 7.5; PR3, Boc-L-Ala p-mitrophenyl ester, 0.1 M phosphate buffer, pH 6.5; chymase, Suc-AAPF-pNA, 0.45 Tris buffer, 1.8 M Na Cl, pH 8.03 and 2% DMSO. All assays were carried out at 25° C. and for all enzymes the absorbance was monitored at 410 nm, except PR 3 (348 nm).
The inhibitory activity of compound 15 toward HLE was determined under competitive inhibition conditions. (Dixon, M. Biochem. J. 20 55:70-71 (1953)). Human leukocyte elastase (HLE assay has been described in detail; see, Groutas et al. Biochemistry 36:4739 (1997).

[2] = molecular target: T2, Thermolysin (Bacillus thermoproteolyticus, UniProt P00800); assay: Thermolysin inhibition assay with N-[3-[2-Furyl]acryloyl]-Gly-L-Leu-NH2 as substrate; format: biochemical; conditions: 0.1 M Tris-HCl pH 7.2, 25° C.
T2 sequence (P00800 233-548): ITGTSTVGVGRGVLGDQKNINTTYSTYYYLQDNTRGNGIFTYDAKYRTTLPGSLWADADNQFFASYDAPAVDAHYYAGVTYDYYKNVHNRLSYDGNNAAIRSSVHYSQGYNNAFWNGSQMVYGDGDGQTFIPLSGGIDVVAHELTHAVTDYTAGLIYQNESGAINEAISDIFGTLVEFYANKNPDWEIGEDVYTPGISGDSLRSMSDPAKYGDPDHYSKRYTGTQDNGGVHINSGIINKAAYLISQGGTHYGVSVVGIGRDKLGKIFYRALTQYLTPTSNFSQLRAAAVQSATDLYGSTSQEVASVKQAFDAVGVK
Method: Thermolysin activity with or without inhibitor was measured using N-[3-[2-Furyl]acryloyl]-Gly-L-Leu-NH2 as substrate (Walsh, K. A. et al. Methods Enzymol.34:435 (1974; Nishino, N. et al. Biochemistry 17:2846 (1978). The substrate solution in 0.1 M Tris-HCl buffer (pH 7.2) containing 2% DMF was added to thermolysin in 0.1 M Tris-HCl, ph 7.2, containing 10 mM CaCl2 and the decrease in absorbance at 345 nm was monitored using a Hewlett-Packard diode array UV/VIS spectrophotometer at 25° C. Percent inhibition and/or K1 values were determined from Dixon plots (Dixon, M. Biochem, J. 55:70 (1953) at two different substrate concentrations.
The inhibitory activity of compound 20 and 30 toward thermolysin was determined under competitive inhibition conditions. Thermolysin activity with or without inhibitor was measured using N-[3-[2-Furyl]acryloyl]-Gly-L-Leu-NH2 as substrate (Walsh, K. A. et al. Methods Enzymol.34:435 (1974); Nishino, N. et al. Biochemistry 17:2846 (1978)).

Ki [1]: 21 µM
Structure (SMILES): CC(C)CC(C=O)N(Cc1ccccc1)S(=O)(=O)N(C)C (stereo not drawn) [Compound 15, N-benzyl-N-(1-formyl-3-methylbutyl)-N′,N′-dimethylfulfamide]

Structure (SMILES): CN(C)S(=O)(=O)N(CC(=O)NO)Cc1ccccc1 [Compound 20, N^2-benzyl-N^2-[(dimethylamino)sulfonyl]-N^1-hydroxyglycinabmide]
Ki ([2]; competitive inhibition conditions, Dixon plots at two substrate concentrations, read-out: K1 or % Inhibition (Ki), Thermolysin): 1.2 µM

Structure (SMILES): CC(C)C[C@@H](C(=O)NO)N(Cc1ccccc1)S(N)(=O)=O [Compound 40]
K1 or % Inhibition (% inhibition), Thermolysin ([2]; inhibitor concentration not given): 26% inhibition

Reference: US6495358B1, “Sulfamide and bis-sulfamide amino acid derivatives as inhibitors of proteolytic enzymes” (Wichita State University, priority 2000, dated 2002)
